Source: US12723024B2 (priority 2021, dated 2026)
Counter-ions that a name gives are not always drawn. Like-named read-outs stand apart in the source and are kept apart here.

Legend:
[1] = Solubility of diastereomeric salts in solvents; assay type: physicochemical; conditions: 20 °C, read-out: Solubility @ 20-30° C.
Excerpt: Thus, in another highly preferred embodiment, DCM is used in step c).

[2] = Salt screening (slurry crystallization); assay type: physicochemical; design: key to Salt screening result: (+) shows that a crystalline salt was formed; (−) physical mixtures; conditions: for Salt screening result: slurry 50° C. then 25° C.; for Polymorph obtained in salt screening: XRPD
Protocol: About 45 mg was added to a suitable solvent and different equivalents of acids were added under stirring at 50° C. for about 2 hours and then at 25° C. for at least 32 hours. Ethanol, acetone, and ACN were used as screening solvents. When no precipitation was obtained or only a few solids were obtained, the solutions were placed at 5° C. for crystallization.
(§1) Obtained suspensions were taken out and centrifuged. Solids obtained was analysed by XRPD. Salts with high or medium crystallinity were further characterized (see Table 5).

Crystallinity by XRPD = assay type: physicochemical; conditions: salt screening sample
Protocol: as §1
(§2) According to the salt screening results (see Table 4), totally 19 potential salt hits were identified. All the potential salt hits were further investigated by Differential Scanning Calorimetry (DSC), Thermogravimetric analysis (TGA), H-NMR, Ion chromatography (IC), Karl Fischer titration (KF), and Polarized Light Microscopy (PLM) to confirm their identity and evaluate their physicochemical properties as shown in Table 5 below.

[3] = Thermogravimetric analysis (TGA) weight loss; assay type: physicochemical; conditions: salt screening sample, at the temperature given (80-200° C.)
Excerpt: as §2

[4] = assay type: physicochemical; conditions: salt screening sample
Excerpt: as §2

[5] = organic solvent or mixture, in Acetone
[6] = organic solvent or mixture, in DCM
[7] = organic solvent or mixture, in EtOAc
[8] = organic solvent or mixture, in EtOH
[9] = organic solvent or mixture, in Heptane
[10] = organic solvent or mixture, in IPA
[11] = organic solvent or mixture, in IPAC
[12] = organic solvent or mixture, in MEK
[13] = organic solvent or mixture, in MTBE
[14] = organic solvent or mixture, in MeOH
[15] = organic solvent or mixture, in THF
[16] = organic solvent or mixture, in Toluene

Row | Compound | Salt screening result ([2]; ACN) | Salt screening result ([2]; Acetone) | Polymorph obtained in salt screening ([2]; EtOH) | Salt screening result ([2]; EtOH) | Crystallinity (Crystallinity by XRPD) | Weight loss (%) [3] | also measured
1 | COc1cc(C(F)(F)F)c(OC)cc1[C@H]1CCCNC1 [(−)-Di-p-anisoyl-L-tartaric acid salt of (R)-3-(2,5-dimethoxy-4-(trifluoromethyl)phenyl)piperidine (1:1)] | – | – | – | – | – | – | solubility [1, 5]: < 10000 µg/mL; solubility [1, 6]: > 400000 µg/mL; solubility [1, 7]: < 10000 µg/mL; solubility [1, 8]: 25000 µg/mL; solubility [1, 9]: < 10000 µg/mL; solubility [1, 10]: < 10000 µg/mL; solubility [1, 11]: < 10000 µg/mL; solubility [1, 12]: < 10000 µg/mL; solubility [1, 13]: < 10000 µg/mL; solubility [1, 14]: 40000 µg/mL; solubility [1, 15]: 45000 µg/mL; solubility [1, 16]: < 10000 µg/mL; solubility ([1]; in Water): < 5000 µg/mL
2 | COc1cc(C(F)(F)F)c(OC)cc1[C@@H]1CCCNC1.C[C@@H](O)C(=O)O [D-lactate salt Polymorph A] | Clear solution | Thin suspension | Polymorph A | + | High | – | –
3 | COc1cc(C(F)(F)F)c(OC)cc1[C@@H]1CCCNC1.COc1cc(C(F)(F)F)c(OC)cc1[C@@H]1CCCNC1.O=C(O)C(O)C(O)C(=O)O [Hemi L-tartrate salt Polymorph A] | + | + | Polymorph A | + | Medium | 4.0% | Polymorph obtained in salt screening ([2]; ACN): Polymorph A; Polymorph obtained in salt screening ([2]; Acetone): Polymorph A
4 | COc1cc(C(F)(F)F)c(OC)cc1[C@@H]1CCCNC1.COc1cc(C(F)(F)F)c(OC)cc1[C@@H]1CCCNC1.O=C(O)/C=C/C(=O)O [Hemi-fumarate salt Polymorph A] | – | – | – | – | Medium | 4.8% | Water content (% w/w) [4]: 5.5% w/w
5 | COc1cc(C(F)(F)F)c(OC)cc1[C@@H]1CCCNC1.COc1cc(C(F)(F)F)c(OC)cc1[C@@H]1CCCNC1.O=C(O)/C=C/C(=O)O [Hemi-fumarate salt Polymorph B] | – | – | – | – | Medium | 9.4% | Water content (% w/w) [4]: 9.3% w/w
6 | COc1cc(C(F)(F)F)c(OC)cc1[C@@H]1CCCNC1.O=P(O)(O)O [Phosphate salt Polymorph A] | Hazy solution | + | – | Clear solution | Medium | 0.7% | Polymorph obtained in salt screening ([2]; Acetone): Polymorph A
7 | COc1cc(C(F)(F)F)c(OC)cc1[C@@H]1CCCNC1.O=S(=O)(O)O [Sulfate salt Polymorph A] | + | + | Polymorph A | + | High | 8.2% | Polymorph obtained in salt screening ([2]; ACN): Polymorph A; Polymorph obtained in salt screening ([2]; Acetone): Polymorph A
8 | COc1cc(C(F)(F)F)c(OC)cc1[C@@H]1CCCNC1 [drawing 39, (−)-Di-p-anisoyl-L-tartaric acid salt of (S)-3-(2,5-dimethoxy-4-(trifluoromethyl)phenyl)piperidine (1:1)] | – | – | – | – | – | – | solubility ([1]; organic solvent or mixture, in 2-MeTHF): 50000 µg/mL; solubility ([1]; organic solvent or mixture, in ACN): 12000 µg/mL; solubility [1, 5]: < 10000 µg/mL; solubility [1, 6]: < 10000 µg/mL; solubility [1, 7]: < 10000 µg/mL; solubility [1, 8]: 12000 µg/mL; solubility [1, 9]: < 10000 µg/mL; solubility [1, 10]: < 10000 µg/mL; solubility [1, 11]: < 10000 µg/mL; solubility [1, 12]: < 10000 µg/mL; solubility [1, 13]: < 10000 µg/mL; solubility [1, 14]: 30000 µg/mL; solubility [1, 15]: 50000 µg/mL; solubility [1, 16]: < 10000 µg/mL; solubility ([1]; in Water): < 5000 µg/mL
9 | Citric acid | Clear solution | Clear solution | – | Clear solution | – | – | –
10 | Gentisic acid | Clear solution | Clear solution | – | Clear solution | – | – | –
11 | Glutamic acid | + | + | Polymorph A | + | – | – | Polymorph obtained in salt screening ([2]; ACN): Polymorph C
